This note sets out measurements from PubChem BioAssay (NCI).

“And” between values parts separate entries of the source, which are not always exact repeats. Identical values can stand only once.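 48-hour exposure; five concentrations; linearly interpolated endpoints. The concentration for 50% growth inhibition is given as GI50. TGI denotes the concentration required for complete inhibition of growth.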

As a reminder, the TGI is the concentration at which net growth stops. What is called GI50 is the concentration giving 50% growth inhibition.

Common to all, as to assay: DTP human tumour cell line panel, 48 h
Assay [1] concerns MOLT-4 leukemia.
The test system of assay [2] is RXF 393 renal.
Assay [3] relates to UACC-257 melanoma.
Assay [4] deals with SNB-19 CNS.
Assay [5] deals with DU-145 prostate.
In assay [6] the test system is M14 melanoma.
Assay [7] relates to OVCAR-3 ovarian.
The test system of assay [8] is RPMI-8226 leukemia.
Assay [9] has as its system SK-MEL-5 melanoma.
Assay [10] has as its system HOP-62 NSCLC.

On to `CC(CO)[C@H]1OC(=O)C=C2[C@@]13O[C@@H]3[C@H]1OC(=O)[C@@]3(C)[C@H]4O[C@H]4C[C@@]2(C)[C@@H]13` (stereo partly drawn), for which the TGI was 3.65 µM in [1]; 6.33 µM in assay [2]; over 26.1 µM in assay [3]; over 30.8 µM in [4]; over 27.1 µM in [5]; over 22.8 µM in assay [6]. The TGI is over 30.1 µM in assay [7], 8.75 µM in [8], over 37.5 µM in assay [9] and over 100 µM in assay [10].

For the compound `Fc1cccc(COc2ccc(Nc3ncnc4sc(-c5ccco5)cc34)cc2Cl)c1`, the GI50 in assay [1], in assay [2], in assay [3], in assay [4], in [5] and in assay [6] was over 25 µM each time. The GI50 in assay [7], in assay [8], in assay [9] and in assay [10] was over 25 µM throughout. Besides, the TGI in assay [1], in [2], in assay [3], in [4], in assay [5] and in assay [6] was over 25 µM in each case. In addition, the TGI in assay [7], in assay [8], in assay [9] and in assay [10] was over 25 µM in each case.

With `N/C(=N\OC(=O)c1ccccc1)C(C(=O)NOC(=O)c1ccccc1)C1CCCCC1` (stereo not drawn), the GI50 was 6.62 µM in assay [1]; 8.59 µM in [2]; 13.7 µM in assay [3]; 15.4 µM in assay [4]; 2.76 µM in assay [5]; 10.9 µM in assay [6]. In addition, the GI50 was 4.56 µM in [7], 3.12 µM in [8], 10.3 µM in assay [9] and 2.87 µM in assay [10]. The TGI in assay [1] came out at 49.8 µM; in assay [2] it was 65.1 µM; in assay [3], 28.7 µM; in assay [4], 39.1 µM; in assay [5], 10.3 µM; in [6], 23 µM. Moreover, the TGI amounted to 15.9 µM in [7], 12.2 µM in assay [8], 22.8 µM in assay [9] and 9.09 µM in [10].

Turning to `O=C(O)c1cc[c]([Hg][S]c2ncnc3nc[nH]c23)cc1`, the TGI is 15.3 µM in assay [1]; 18.8 µM in assay [2]; 22.9 µM in [3]; over 100 µM in assay [4]; 25.1 µM in assay [5]; 14 µM in [6]. Further, the TGI in assay [7] is 19.9 µM; in [8], 28.2 µM; in [9], 36.4 µM; in assay [10] it was 26.1 µM. Further, the GI50 was 2.95 µM in [2]; 10.4 µM in assay [3]; over 76.7 µM in assay [4]; 7.47 µM in assay [5]; 2.18 µM in assay [6]; 1.88 µM in [7]. The GI50 in assay [8] is 4.91 µM; in [9], 14.1 µM; in assay [10] it was 10.7 µM.

`CN1CCCN(CCNc2nccc(-c3c(-c4cccc(O)c4)nc4sccn34)n2)S1(=O)=O`: the GI50 was 14.5 µM and 10.2 µM in [1]; 5.26 µM and 2.72 µM in [2]; 0.132 µM and 1.01 µM in [3]; 40 µM and 48.7 µM in assay [4]; 6.84 µM and 6.32 µM in assay [5]; 0.17 µM and 0.128 µM in assay [6]. Besides, the GI50 in assay [7] is 13.7 µM and 7.69 µM; in assay [8], 16.7 µM and 15.2 µM; in assay [9], 1.17 µM and 1.23 µM; in assay [10] it was 30.6 µM and 30.9 µM. For the same compound, the TGI was 52.1 µM and 41.2 µM in assay [1]; 31 µM and 21.6 µM in assay [2]; 75 µM and > 100 µM in [4]; 46.9 µM and > 59.3 µM in [5]; 9.04 µM and 13.2 µM in assay [6]; 75 µM and 99 µM in [7]. Moreover, the TGI in assay [8] is 37.2 µM and 41.3 µM; in assay [9], 11.2 µM and 13.8 µM; in assay [10] it was 75 µM and > 100 µM.

As for `CC1(C)CCC(C)(C)c2cc(C(=O)Nc3ccc(C(=O)O)cc3)ccc21`, the TGI in assay [1] was over 76.8 µM; in assay [2], over 42 µM; in assay [3] it was over 67.7 µM; in assay [4], over 66.4 µM; in assay [5], over 73.6 µM; in assay [6], 51.1 µM. Besides, the TGI was 40.4 µM in [7], 57.7 µM in [8], over 56 µM in assay [9] and 37.5 µM in assay [10].

Take `COc1ccc(-c2cc(-c3ccc(Cl)cc3)c(C#N)c(=O)n2CCCCC(=O)Nc2ccccc2N)cc1`: the GI50 was 4.89 µM in assay [1]; 1.69 µM in assay [2]; 4.48 µM in [3]; 22.2 µM in assay [4]; 16.3 µM in assay [5]; 2.58 µM in assay [6]. Besides, the GI50 in assay [7] was 13.5 µM; in [8], 0.789 µM; in assay [9] it was 2.05 µM; in [10] it was 12.7 µM. The TGI in assay [1] is over 100 µM; in assay [2], 6.89 µM; in [3] it was over 100 µM; in [4] it was over 100 µM; in assay [5], over 100 µM; in [6], 8.14 µM. Besides, the TGI in assay [7] is 56.6 µM; in assay [8], 6.68 µM; in assay [9], 4.48 µM; in [10], over 100 µM.

As to `Nc1c(C(=O)Nc2ccc([As](=O)(O)O)cc2)cnc2nnnn12`, the TGI in assay [1], in [2], in assay [3], in assay [4], in assay [5] and in assay [6] was over 100 µM in each case. The TGI in [7], in [8], in assay [9] and in [10] was over 100 µM each time.
